{"source": "paper PMC10848157", "about": "“Assessing NH300094, a novel dopamine and serotonin receptor modulator with cognitive enhancement property for treating schizophrenia” (Frontiers in Pharmacology, 2024)", "experiment": "Spontaneous locomotor activity test in mice", "conditions": "mouse, in vivo; single oral dose, male ICR mice; read-out: ED50, inhibition of spontaneous locomotor activity"}
{"smiles": "O=C1CCc2cc(OCCCN3CCC(c4noc5cc(F)ccc45)CC3)cc3c2N1CC3", "note": "[NH300094, 8-(3-(4-(6-fluorobenzo [d]isoxazol-3-yl)piperidin-1-yl)propoxy)-1,2,5,6-tetrahydro-4H-pyrrolo [3,2,1-ij] quinolin-4-one]", "values": [{"measurement": "ED50 at 60 min", "result": "~0.49", "unit": "mg/kg"}]}
